In data set [1] the target is T1, Orexin/Hypocretin receptor type 1 (Homo sapiens) (UniProt O43613).
T1 sequence (whole entry): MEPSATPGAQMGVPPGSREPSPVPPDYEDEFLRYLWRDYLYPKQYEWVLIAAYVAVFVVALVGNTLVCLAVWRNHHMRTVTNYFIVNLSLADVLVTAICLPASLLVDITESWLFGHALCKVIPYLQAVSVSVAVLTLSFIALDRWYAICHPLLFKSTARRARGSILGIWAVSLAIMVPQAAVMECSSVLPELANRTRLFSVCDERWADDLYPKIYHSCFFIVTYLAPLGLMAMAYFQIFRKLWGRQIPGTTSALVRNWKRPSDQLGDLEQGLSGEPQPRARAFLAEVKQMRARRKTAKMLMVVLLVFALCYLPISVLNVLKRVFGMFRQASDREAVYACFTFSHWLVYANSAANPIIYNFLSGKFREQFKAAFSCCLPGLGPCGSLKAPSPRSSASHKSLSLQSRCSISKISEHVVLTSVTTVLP
The data set can be described thus: Agonist activity at human OX1 receptor expressed in CHOK1 cells assessed as increase in calcium accumulation at 10 uM incubated for 30 mins measured for 150 secs by calcium-4 dye based FLIPR assay relative to orexin-A. Format: functional, cell-based.

Data set [2] has as its target T2, Orexin receptor type 2 (Homo sapiens) (UniProt O43614).
T2 sequence (whole entry): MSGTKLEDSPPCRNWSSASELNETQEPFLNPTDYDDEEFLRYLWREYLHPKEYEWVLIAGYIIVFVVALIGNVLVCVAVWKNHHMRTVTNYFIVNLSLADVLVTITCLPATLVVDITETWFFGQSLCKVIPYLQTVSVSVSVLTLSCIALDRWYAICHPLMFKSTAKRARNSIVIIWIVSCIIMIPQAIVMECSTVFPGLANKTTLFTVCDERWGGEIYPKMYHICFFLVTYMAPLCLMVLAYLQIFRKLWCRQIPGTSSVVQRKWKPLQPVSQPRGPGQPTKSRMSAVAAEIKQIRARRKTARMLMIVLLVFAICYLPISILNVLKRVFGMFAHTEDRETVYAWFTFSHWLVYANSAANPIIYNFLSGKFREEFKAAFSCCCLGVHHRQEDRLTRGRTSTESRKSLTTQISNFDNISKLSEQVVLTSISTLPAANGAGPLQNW
The data set can be described thus: Agonist activity at human OX2 receptor expressed in CHOK1 cells assessed as increase in calcium accumulation at 10 uM incubated for 30 mins measured for 150 secs by calcium-4 dye based FLIPR assay relative to orexin-A. Format: functional, cell-based.

Data set [3] concerns the target T1, Orexin/Hypocretin receptor type 1 (Homo sapiens). The experiment in a line: Agonist activity at human OX1 receptor expressed in CHOK1 cells assessed as increase in calcium accumulation at 10 uM incubated for 30 mins measured for 150 secs in presence of OX1R antagonist SB-334867 by calcium-4 dye based FLIPR assay. Type of data set: functional, cell-based.
Data set [4] addresses T2, Orexin receptor type 2 (Homo sapiens). The data set can be described thus: Agonist activity at human OX2 receptor expressed in CHOK1 cells assessed as increase in calcium accumulation at 10 uM incubated for 30 mins measured for 150 secs in presence of OX2R antagonist TCS-1102 by calcium-4 dye based FLIPR assay. Type of data set: functional, cell-based.
In data set [5] the target is T1, Orexin/Hypocretin receptor type 1 (Homo sapiens). The experiment in a line: Allosteric agonist activity at human OX1 receptor expressed in CHOK1 cells assessed as potentiation of orexin-A induced calcium accumulation at 10 uM preincubated for 30 mins followed by orexin-A addition and measured for 150 secs by calcium-4 dye based FLIPR assay relative to control. Type of data set: functional, cell-based.

Data set [6] deals with T2, Orexin receptor type 2 (Homo sapiens). The experiment in a line: Allosteric agonist activity at human OX2 receptor expressed in CHOK1 cells assessed as potentiation of orexin-A induced calcium accumulation at 10 uM preincubated for 30 mins followed by orexin-A addition and measured for 150 secs by calcium-4 dye based FLIPR assay relative to control. Format: functional, cell-based.

The test system of another data set is CHO-K1. The experiment in a line: Effect on ATP-induced intracellular calcium accumulation in CHOK1 cells expressing human OXR at 10 uM incubated for 30 mins and measured for 150 secs by calcium-4 dye based FLIPR assay. Type of data set: functional, cell-based. Particulars: Cricetulus griseus. A general note: Calcium assays in cells follow changes in intracellular calcium, usually with a dye or a luminescent sensor.

Data set [7] has as its target T3, Orexin/Hypocretin receptor type 1 (Homo sapiens, UniProt O43613).
T3 sequence (O43613 whole entry): T1 sequence (whole entry)
The experiment in a line: Antagonist activity at human OX1 receptor expressed in CHOK1 cells assessed as inhibition of orexin-A-induced calcium accumulation preincubated for 30 mins followed by orexin-A addition measured for 150 secs by calcium-4 dye based FLIPR assay. Format: functional, cell-based. The conditions noted are these: read-out: Ki(app).

The target in another data set is T4, Orexin receptor type 2 (Homo sapiens, UniProt O43614).
T4 sequence (O43614 whole entry): T2 sequence (whole entry)
The experiment in a line: Antagonist activity at human OX2 receptor expressed in CHOK1 cells assessed as inhibition of orexin-A-induced calcium accumulation preincubated for 30 mins followed by orexin-A addition measured for 150 secs by calcium-4 dye based FLIPR assay. Type of data set: functional, cell-based. Particulars: read-out: Ki(app).

Data set [8] can be described thus: Colloidal aggregating behavior of the compound at 1 to 30 uM by nephelometric method. Format: physicochemical.
Data set [9] deals with T1, Orexin/Hypocretin receptor type 1 (Homo sapiens). The data set can be described thus: Allosteric agonist activity at human OX1 receptor expressed in CHOK1 cells assessed as potentiation of orexin-A induced calcium accumulation at 5 uM preincubated for 30 mins followed by orexin-A addition and measured for 150 secs by calcium-4 dye based FLIPR assay relative to control. Format: functional, cell-based.

In data set [10] the target is T2, Orexin receptor type 2 (Homo sapiens). The data set can be described thus: Displacement of [125I]-orexin-A from human OX2 receptor expressed in CHOK1 cells at 10 uM incubated for 10 mins and measured after 90 mins by liquid scintillation counting method relative to control. Type of data set: cell-based.
Data set [11] deals with T1, Orexin/Hypocretin receptor type 1 (Homo sapiens). The experiment in a line: Allosteric agonist activity at human OX1 receptor expressed in CHOK1 cells assessed as potentiation of orexin-A induced calcium accumulation preincubated for 30 mins followed by orexin-A addition and measured for 150 secs by calcium-4 dye based FLIPR assay. Type of data set: functional, cell-based.

Data set [12] concerns the target T2, Orexin receptor type 2 (Homo sapiens). The experiment in a line: Allosteric agonist activity at human OX2 receptor expressed in CHOK1 cells assessed as potentiation of orexin-A induced calcium accumulation preincubated for 30 mins followed by orexin-A addition and measured for 150 secs by calcium-4 dye based FLIPR assay. Format: functional, cell-based.
A short description of data set [13]: Solubility of the compound in water. Type of data set: physicochemical. The conditions noted are these: buffer.
Data set [14] deals with T1, Orexin/Hypocretin receptor type 1 (Homo sapiens). The data set can be described thus: Displacement of [125I]-orexin-A from human OX1 receptor expressed in CHOK1 cells at 10 uM incubated for 10 mins and measured after 90 mins by liquid scintillation counting method relative to control. Type of data set: cell-based.
The nature of data set [15]: Colloidal aggregating behavior of the compound at 18 to 30 uM by nephelometric method. Type of data set: physicochemical.

Active and inactive are the calls of the source. No cut-off for these calls is given here.

Broadly, the Emax is the maximal effect, on the per cent scale that the assay sets. Turning to `COC(=O)c1ccc2ccc(C(=O)c3ccc(C(F)(F)F)cc3)c-2cc1`, the Emax in data set [1] is 6.13%; in data set [2], 12.4%. Further, the result (in data set [3]; in data set [4]; in the data set on CHO-K1) was inactive. The fold change (FC) is 1.59 in data set [5] and 0.86 in [6].

As for `CCOc1ccc(-c2cc(C(=O)c3ccccc3)c3ccc(C(=O)O)ccc2-3)cc1`, the Ki in data set [7] is 3.1 to 7.5 µM; at Orexin receptor type 2, 3.2 to 4.9 µM. Besides, the Emax was -0.17% in data set [1] and -0.99% in data set [2]. Besides, the fold change (FC) in [5] is 1.01; in [6], 0.76. Also, the result in the data set with CHO-K1 was inactive. The Activity entry in data set [8] is on record as “Not Active”.

As usually defined, the inhibition is the drop in the measured response relative to a control, in per cent. As for `COC(=O)Cc1ccc2ccc(C(=O)c3ccc(C(F)(F)F)cc3)c-2cc1`, the figures for the fold change (FC) in [9], in data set [5] and in data set [6] were 1.4, 2.03 and 1.34, respectively. In addition, the inhibition in [10] came to 1%. The figures for the Emax in data set [1] and in [2] were 1.28% and 0.37%, respectively. In addition, the Activity result in data set [11] and in [12] was “Dose-dependent effect” in each case. Also, in data set [13], the solubility result was “Insoluble”. Besides, the outcome in the data set with CHO-K1 was inactive.

Take `COC(=O)c1cccc2c(C=O)cc(I)c-2c1`: the inhibition in data set [14] stood at 40.7%; in data set [10], 47.2%. For the same compound, the values for the Ki (in data set [7]; at Orexin receptor type 2) were 4.8 µM and 3.6 µM, respectively. The Emax was 1.59% in data set [1] and 0.68% in data set [2]. Moreover, in data set [15], the outcome was Active.

On to `COC(=O)c1cc(CN2CCOCC2)c2ccc(Cl)ccc1-2`, for which the results for the inhibition in [14] and in [10] were 24.5% and 46.7%, respectively. Also, the Ki in [7] lay in the range of 5.4 to 7.6 µM; at Orexin receptor type 2, 4.3 to 8.6 µM. Also, the values for the Emax in data set [1] and in data set [2] were 0.42% and -0.98%, respectively. Besides, the Activity entry in [8] is on record as “Not Active”.

With `COC(=O)Cc1ccc2ccc(C(=O)c3ccccc3)c-2cc1`, in [10], the inhibition was -4.3%. Besides, the Emax came out at 5.01% in data set [1] and 11% in data set [2]. For the same compound, the result (in data set [3]; in [4]; in the data set on CHO-K1) was inactive. Moreover, the fold change (FC) in [5] stood at 1.86; in data set [6] it was 0.97.

For the origin of these results see ChEMBL document CHEMBL4270590, “Azulene-based compounds for targeting orexin receptors” (Eur J Med Chem, 2018).
